Source: the supplement of paper PMC4862054

Tests used:
CAL-85-1 [1] = test: normalised viability (% of control), CellTiter-Blue; higher = more viable cells (about 100 = DMSO control); details: incubation time: 72 h
Procedure: (§1)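 DSRT, CellTiter-Blue viability, 72 h incubation. Signal is normalised to DMSO and benzethonium chloride controls. Value is the normalised response at dose 7.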

DU-4475 [2] = test: as above; details: incubation time: 72 h
Procedure: as §1

CAL-148 [3] = test: as above; details: incubation time: 72 h
Procedure: as §1

CAL-51 [4] = test: as above; details: incubation time: 72 h
Procedure: as §1

MDA-MB-453 [5] = test: as above; details: incubation time: 72 h
Procedure: as §1

HDQ-P1 [6] = test: as above; details: incubation time: 72 h
Procedure: as §1

CAL-85-1 [7] = test: normalised response (% of control), CellTiter-Glo; higher = more viable cells (100 = DMSO, 0 = benzethonium chloride kill control); details: incubation time: 72 h
Procedure, shortened: (§2)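 Each entry is the normalised signal at a single concentration within a series. The series comprised 5 concentrations in 10-fold steps over a compound-specific 10,000-fold range, placed in 384-well plates into which breast cancer cell lines were seeded as 20 µl suspension and incubated 72 h. CellTox Green (485/520 nm) fluorescence and then CellTiter-Glo luminescence were read, with signals normalised per plate to 0.1 % DMSO (100) and a positive kill control (0).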

MDA-MB-231 = test: as above; details: incubation time: 72 h
Procedure, shortened: as §2

DU-4475 [8] = test: as above; details: incubation time: 72 h
Procedure, shortened: as §2

CAL-148 [9] = test: as above; details: incubation time: 72 h
Procedure, shortened: as §2

MFM-223 = test: as above; details: incubation time: 72 h
Procedure, shortened: as §2

MCF-10A = test: as above; details: incubation time: 72 h
Procedure, shortened: as §2

CAL-120 [10] = test: as above; details: incubation time: 72 h
Procedure, shortened: as §2

HCC1599 = test: as above; details: incubation time: 72 h
Procedure, shortened: as §2

HCC1143 [11] = test: as above; details: incubation time: 72 h
Procedure, shortened: as §2

MDA-MB-436 [12] = test: as above; details: incubation time: 72 h
Procedure, shortened: as §2

BT-549 = test: as above; details: incubation time: 72 h
Procedure, shortened: as §2

MDA-MB-453 [13] = test: as above; details: incubation time: 72 h
Procedure, shortened: as §2

HDQ-P1 [14] = test: as above; details: incubation time: 72 h
Procedure, shortened: as §2

CAL-120 [15] = details: 72 h
Procedure, shortened: (§3)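 Breast cancer cell lines in 20 µl suspension were seeded onto 384-well plates that already held compound dissolved in 5 µl medium and were incubated for 72 h. Viability was measured by adding 2.5 µl CellTiter-Blue for 2 h at 37 °C and reading fluorescence at 560/590 nm. Each plate was normalised to vehicle and a positive kill control and checked by Z'-factor. EC50 was taken from a fitted percent-inhibition dose-response curve, censored at the highest concentration, and rows with a drug sensitivity score of zero were removed.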

HCC1937 = details: 72 h
Procedure, shortened: as §3

CAL-120 [16] = test: normalised viability (% of control), CellTiter-Blue; higher = more viable cells (about 100 = DMSO control); details: incubation time: 72 h
Procedure, shortened: (§4)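 Plates were quality-checked by Z'-factor and normalised to vehicle (100) and a positive kill control (0). The underlying assay incubated breast cancer cell lines for 72 h on 384-well plates with compound, then added 2.5 µl CellTiter-Blue for 2 h at 37 °C and read at 560/590 nm. The value is normalised viability at a single listed concentration of the series.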

HCC1143 [17] = test: as above; details: incubation time: 72 h
Procedure, shortened: as §4

MDA-MB-436 [18] = test: as above; details: incubation time: 72 h
Procedure, shortened: as §4

CAL-51 [19] = test: as above; details: incubation time: 72 h; remark: listed apart in the source
Procedure, shortened: as §4

CN1CCC(COc2cnc(-c3cccc(Cn4nc(-c5cccc(C#N)c5)ccc4=O)c3)nc2)CC1 (1000 nM) gave a normalised viability (CAL-85-1 [1]) of 98.6%, a normalised viability (DU-4475 [2]) of 97.2% and a normalised viability (CAL-148 [3]) of 90.4%. The normalised viability (CAL-51 [4]) was 99.2%, the normalised viability (MDA-MB-453 [5]) was 90.8% and the normalised viability (HDQ-P1 [6]) was 95%. For the same molecule, the normalised response (CAL-85-1 [7]) was 99.8%, the normalised response (MDA-MB-231) was 104% and the normalised response (DU-4475 [8]) was 101%. It also gave a normalised response (CAL-148 [9]) of 94.5%, a normalised response (MFM-223) of 84.9% and a normalised response (MCF-10A) of 89.3%. The normalised response (CAL-120 [10]) was 96.1%, the normalised response (HCC1599) was 85.6% and the normalised response (HCC1143 [11]) was 97.8%. The normalised response (MDA-MB-436 [12]) was 84.4%, the normalised response (BT-549) was 91.9% and the normalised response (MDA-MB-453 [13]) was 84%. For the same molecule, the normalised response (HDQ-P1 [14]) was 99.6%.
With CN(C)C/C=C/C(=O)Nc1cc2c(Nc3ccc(F)c(Cl)c3)ncnc2cc1O[C@H]1CCOC1 [Afatinib] (1000 nM) the normalised viability (CAL-85-1 [1]) was 48.6%, the normalised viability (DU-4475 [2]) was 87.7% and the normalised viability (CAL-148 [3]) was 73.7%. The normalised viability (CAL-51 [4]) was 99.7%, the normalised viability (MDA-MB-453 [5]) was 27.5% and the normalised viability (HDQ-P1 [6]) was 49.8%. It also gave a normalised response (CAL-85-1 [7]) of 61.7%, a normalised response (MDA-MB-231) of 83.4% and a normalised response (DU-4475 [8]) of 100%. It also gave a normalised response (CAL-148 [9]) of 78.6%, a normalised response (MFM-223) of 93% and a normalised response (MCF-10A) of 35.1%. For the same molecule, the normalised response (CAL-120 [10]) was 93.5%, the normalised response (HCC1599) was 108% and the normalised response (HCC1143 [11]) was 97.2%. For the same molecule, the normalised response (MDA-MB-436 [12]) was 98%, the normalised response (BT-549) was 89.1% and the normalised response (MDA-MB-453 [13]) was 63.3%. It also gave a normalised response (HDQ-P1 [14]) of 64.3%.
For CN1CC[C@H](c2c(O)cc(O)c3c(=O)cc(-c4ccccc4Cl)oc23)[C@H](O)C1 [Alvocidib] (1000 nM), the normalised viability (CAL-85-1 [1]) was 1.95%, the normalised viability (DU-4475 [2]) was 3.18% and the normalised viability (CAL-148 [3]) was 10.3%. It also gave a normalised viability (CAL-51 [4]) of 4.57%, a normalised viability (MDA-MB-453 [5]) of 9.17% and a normalised viability (HDQ-P1 [6]) of 10.8%.
With Nc1nc(Cl)nc2c1ncn2[C@H]1C[C@H](O)[C@@H](CO)O1 [Cladribine] (100 nM) the normalised viability (CAL-85-1 [1]) was 84.2%, the normalised viability (DU-4475 [2]) was 81% and the normalised viability (CAL-148 [3]) was 96.9%. The normalised viability (CAL-51 [4]) was 111%, the normalised viability (MDA-MB-453 [5]) was 98.4% and the normalised viability (HDQ-P1 [6]) was 95.5%.
Molecule Nc1ccn([C@@H]2O[C@H](CO)[C@@H](O)[C@@H]2O)c(=O)n1 [Cytarabine] (1000 nM) has a normalised viability (CAL-85-1 [1]) of 88.5%, a normalised viability (DU-4475 [2]) of 39.7% and a normalised viability (CAL-148 [3]) of 44.6%. It also gave a normalised viability (CAL-51 [4]) of 29.8%, a normalised viability (MDA-MB-453 [5]) of 62.4% and a normalised viability (HDQ-P1 [6]) of 82.2%.
Cc1c2oc3c(C)ccc(C(=O)N[C@@H]4C(=O)N[C@H](C(C)C)C(=O)N5CCC[C@H]5C(=O)N(C)CC(=O)N(C)[C@@H](C(C)C)C(=O)O[C@@H]4C)c3nc-2c(C(=O)N[C@@H]2C(=O)N[C@H](C(C)C)C(=O)N3CCC[C@H]3C(=O)N(C)CC(=O)N(C)[C@@H](C(C)C)C(=O)O[C@@H]2C)c(N)c1=O [Dactinomycin] (100 nM) gave a normalised viability (CAL-85-1 [1]) of 3.46%, a normalised viability (DU-4475 [2]) of 0.64% and a normalised viability (CAL-148 [3]) of 7.49%. For the same molecule, the normalised viability (CAL-51 [4]) was 2.49%, the normalised viability (MDA-MB-453 [5]) was 4.93% and the normalised viability (HDQ-P1 [6]) was 12.9%.
With COc1cccc2c1C(=O)c1c(O)c3c(c(O)c1C2=O)C[C@@](O)(C(=O)CO)C[C@@H]3O[C@H]1C[C@H](N)[C@H](O)[C@H](C)O1 [Doxorubicin] (100 nM) the normalised viability (CAL-85-1 [1]) was 77.5%, the normalised viability (DU-4475 [2]) was 59.1% and the normalised viability (CAL-148 [3]) was 39.1%. It also gave a normalised viability (CAL-51 [4]) of 66.1%, a normalised viability (MDA-MB-453 [5]) of 98.8% and a normalised viability (HDQ-P1 [6]) of 70.9%.
For Cc1ccc(F)c(NC(=O)Nc2ccc(-c3cccc4[nH]nc(N)c34)cc2)c1 [Linifanib] (100 nM), the normalised viability (CAL-85-1 [1]) was 87.4%, the normalised viability (DU-4475 [2]) was 103% and the normalised viability (CAL-148 [3]) was 103%. The normalised viability (CAL-51 [4]) was 108%, the normalised viability (MDA-MB-453 [5]) was 100% and the normalised viability (HDQ-P1 [6]) was 113%.
For S=c1[nH]cnc2nc[nH]c12 [Mercaptopurine], the “EC50, CellTiter-Blue viability” value (CAL-120 [15]) was 9.91 µM, the “EC50, CellTiter-Blue viability” value (HCC1937) was 1550 nM and the normalised viability (CAL-120 [16]; 10 nM) was 88.1%. It also gave a normalised viability (CAL-120 [16]; 1000 nM) of 83.7%, a normalised viability (CAL-120 [16]; 10000 nM) of 47.3% and a normalised viability (HCC1143 [17]; 10 nM) of 85.8%. It also gave a normalised viability (HCC1143 [17]; 1000 nM) of 95.7%, a normalised viability (HCC1143 [17]; 10000 nM) of 88.5% and a normalised viability (MDA-MB-436 [18]; 10 nM) of 89.8%. The normalised viability (MDA-MB-436 [18]; 1000 nM) was 74.1%, the normalised viability (MDA-MB-436 [18]; 10000 nM) was 83% and the normalised viability (CAL-51 [19]; 3 nM) was 105%. The normalised viability (CAL-51 [19]; 30 nM) was 101% and the normalised viability (CAL-51 [19]; 100 nM) was 106%.
S=c1[nH]cnc2nc[nH]c12 [Mercaptopurine] (1000 nM) showed a normalised viability (CAL-85-1 [1]) of 78.4%, a normalised viability (DU-4475 [2]) of 90.6% and a normalised viability (CAL-148 [3]) of 100%. It also gave a normalised viability (CAL-51 [4]) of 101%, a normalised viability (MDA-MB-453 [5]) of 110% and a normalised viability (HDQ-P1 [6]) of 90.3%.
